Laboratory results: article PMC4367188 (ACS Chemical Neuroscience, 2015)

Key:
hCHT = molecular target: T1, hCHT (Homo sapiens, UniProt Q9GZV3); assay: [3H]HC-3 binding to membranes from HEK hCHT cells
T1 sequence (Q9GZV3 1-580): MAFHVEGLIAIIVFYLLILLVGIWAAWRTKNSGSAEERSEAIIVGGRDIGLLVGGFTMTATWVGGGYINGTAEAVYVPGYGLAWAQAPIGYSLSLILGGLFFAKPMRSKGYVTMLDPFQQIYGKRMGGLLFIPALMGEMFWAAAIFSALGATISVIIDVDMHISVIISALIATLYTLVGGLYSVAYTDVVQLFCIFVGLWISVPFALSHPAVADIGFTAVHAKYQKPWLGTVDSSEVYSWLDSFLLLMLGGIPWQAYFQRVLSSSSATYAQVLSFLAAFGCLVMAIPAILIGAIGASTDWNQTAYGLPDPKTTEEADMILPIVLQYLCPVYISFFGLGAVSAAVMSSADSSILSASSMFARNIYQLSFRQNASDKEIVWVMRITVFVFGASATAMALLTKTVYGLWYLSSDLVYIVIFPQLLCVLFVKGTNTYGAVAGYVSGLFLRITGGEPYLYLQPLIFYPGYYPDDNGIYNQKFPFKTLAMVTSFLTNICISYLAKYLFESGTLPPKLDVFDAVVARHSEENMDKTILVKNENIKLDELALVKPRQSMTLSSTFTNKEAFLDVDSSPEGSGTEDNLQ

WT hCHT = molecular target: T2, WT hCHT (Homo sapiens, UniProt Q9GZV3); assay: cell-surface biotinylation, CHT surface expression in WT hCHT HEK 293 cells; type: cell-based
T2 sequence (Q9GZV3 1-580): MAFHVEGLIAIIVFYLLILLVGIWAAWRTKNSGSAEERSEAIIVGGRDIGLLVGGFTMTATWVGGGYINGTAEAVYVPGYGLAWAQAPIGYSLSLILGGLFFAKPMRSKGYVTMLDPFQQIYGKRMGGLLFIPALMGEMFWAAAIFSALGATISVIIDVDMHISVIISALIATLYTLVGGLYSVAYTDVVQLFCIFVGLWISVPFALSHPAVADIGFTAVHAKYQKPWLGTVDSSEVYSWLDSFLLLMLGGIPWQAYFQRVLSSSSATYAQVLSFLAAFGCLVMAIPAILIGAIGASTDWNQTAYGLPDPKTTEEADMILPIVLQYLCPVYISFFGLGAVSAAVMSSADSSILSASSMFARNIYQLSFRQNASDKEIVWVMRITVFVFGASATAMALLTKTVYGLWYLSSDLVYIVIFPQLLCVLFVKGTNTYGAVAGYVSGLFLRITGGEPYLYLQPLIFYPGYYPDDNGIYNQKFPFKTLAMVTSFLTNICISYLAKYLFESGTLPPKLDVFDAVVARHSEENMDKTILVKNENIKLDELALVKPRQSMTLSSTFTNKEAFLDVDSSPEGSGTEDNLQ

[1] = substrate: C[N+](C)(C)CCO; assay: cells, lysate or membranes; conditions: other: hCHT LV-AA transfected cells; no inhibitor; 37.0 °C

## C[N+]1(C)CCOC(O)(c2ccc(-c3ccc(C4(O)C[N+](C)(C)CCO4)cc3)cc2)C1 (stereo not shown) [HC-3, hemicholinium-3, reference compound]
hCHT
  Kd: 8.5 ± 1.1 nM
WT hCHT; 5 μM, 15 min incubation
  increase in steady-state hCHT surface expression: 76 ± 16 % of control

## C[N+](C)(C)CCO [choline]
WT hCHT; choline (10 μM), 15 min
  effect of choline on CHT surface expression: no evidence for the previously reported choline-dependent reductions

B1: hCHT LV-AA (Homo sapiens; L531A/V532A) (protein)
chain: MAFHVEGLIAIIVFYLLILLVGIWAAWRTKNSGSAEERSEAIIVGGRDIGLLVGGFTMTATWVGGGYINGTAEAVYVPGYGLAWAQAPIGYSLSLILGGLFFAKPMRSKGYVTMLDPFQQIYGKRMGGLLFIPALMGEMFWAAAIFSALGATISVIIDVDMHISVIISALIATLYTLVGGLYSVAYTDVVQLFCIFVGLWISVPFALSHPAVADIGFTAVHAKYQKPWLGTVDSSEVYSWLDSFLLLMLGGIPWQAYFQRVLSSSSATYAQVLSFLAAFGCLVMAIPAILIGAIGASTDWNQTAYGLPDPKTTEEADMILPIVLQYLCPVYISFFGLGAVSAAVMSSADSSILSASSMFARNIYQLSFRQNASDKEIVWVMRITVFVFGASATAMALLTKTVYGLWYLSSDLVYIVIFPQLLCVLFVKGTNTYGAVAGYVSGLFLRITGGEPYLYLQPLIFYPGYYPDDNGIYNQKFPFKTLAMVTSFLTNICISYLAKYLFESGTLPPKLDVFDAVVARHSEENMDKTIAAKNENIKLDELALVKPRQSMTLSSTFTNKEAFLDVDSSPEGSGTEDNLQ
[1]
  Km: 2.5 ± 0.4 µM
